Source: patent publication EP2050747A1, “Dimers of harmol or of its derivatives and uses thereof” (BioAlliance Pharma, priority 2007, dated 2009)

Assays:
F-actin = test: Actin dynamics, fluorescence anisotropy assay in tumor cell cytosolic fraction; assay type: biochemical; design: Kobs: unit not given beside the values; details: for Kobs: rate constant of F-actin elongation; for actin polymerisation kinetics compared with normal NIH 3T3 cytosolic fraction: tumoral NIH 3T3 EF cytosolic fraction; for F actin steady state value (Δ mA max), effect in words / F actin elongation rate constant (Kobs), effect in words: added to assay medium, versus untreated; for F actin steady state value (Δ mA max), effect in words: NIH 3T3 EF cytosolic fraction or lysate, harmol at 10 µM
Procedure: Actin dynamics have been quantified in tumor cell cytosolic fraction using the fluorescence anisotropy assay which gains access to rate constant of F-actin elongation (kobs) and steady state concentration of F-actin (Δ mA max).
All reactions were carried out at 22°C and fluorescence anisotropy signal was recovered at 520 nm with excitation at 490 nm in a Beacon 2000 (Panvera). Alexa 488 actin (Molecular Probes) was centrifuged at 35 000 rpm for 2 h at 4°C to sediment residual actin polymers in a Beckman L5-50B ultracentrifuge. […] 80% of the supernatant was withdrawn; the concentration was defined through fluorescence measurements (excitation at 490 nm and signal recovering at 520 nm). The ultracentrifuged actin concentration was calculated using the non ultracentrifuged Alexa 488 actin as a standard. The supernatant was aliquoted, frozen in liquid nitrogen and stored at -80°C.
Before experiment, an aliquot of ultracentrifuged Alexa 488 actin was diluted to a concentration of 1 mg/ml in G buffer (5 mM Tris pH 8.1, 2 mM CaCl2, 0.2 mM DTT, 0.2 mM ATP). 3 µl of diluted Alexa 488 actin was mixed in 168 µl of G buffer and actin monomers anisotropy was measured before the addition of 4 µl of polymerisation buffer (2.5 M KCI, 50 mM MgCl2, 25 mM ATP), 5 µl of G buffer in the presence or in the absence of the chemical molecule and 20 µl cellular extract of normal NIH 3T3 cells or malignant NIH 3T3 EF cells at 2 mg/ml. The final concentration of Alexa 488 actin was 4 nM. The ratio of unlabelled to labelled actin was about 140/4 nM. Measurements were made each 10 sec for 200 sec. Actin monomers anisotropy value was subtracted, yielding the anisotropy enhancement (Δ mA). The data were fitted with the equation Y= Ymax . [1- exp(- K.X)]. The curves start at zero and ascend to Ymax that corresponds to the steady state anisotropy value (Δ mA eq), with a rate constant K. Y is anisotropy values of which monomers anisotropy is substracted and X is the time (Assessment of cellular actin dynamics by measurement of fluorescence anisotropy. Anal Biochem. 2007 Aug 1;367(1):95-103. Epub 2007 Apr 5. Spitz et al.).

[1] = system: melanoma cell line B16F10; test: Wound healing assay (cell motility); assay type: cell-based, Murine; details: B16F10, non cytotoxic concentration (25-100 nM), 24 h after wound formation, Figure 6
Procedure: Harmol dimers have been tested in a cell motility assay: the behaviour of tumoral cells treated by these dimers was compared with non-treated tumoral cells in a wound healing assay. Wound healing assay was performed to evaluate the effect of tested molecules on motility of malignant NIH 3T3 EF cells and melanoma cell line B16F10. About 100 000-200 000 cells were seeded in a 6-well culture plate and the tested molecule was added 24 hours later. Cells were grown for 3 days to confluence about 90-95% and small scratch-wounds (1 mm width) were made with a pipette tip. […] Then, the cells were fixed for 10 min in PBS containing 3.7% formaldehyde at 4°C.

NIH 3T3 EF [2] = test: MTT assay (cellular viability); assay type: cell-based; details: Mus musculus, NIH3T3, 72 h, 3 days
Procedure: (§1) Growth studies were performed using the [3-(4,5 dimethylthiazol-2-yl)-2,5-diphenyl-2H-tetrazolium bromide] (Sigma) colorimetric assay.
(§2) About 1500 cells were seeded in a 96-well culture plate 24 hours before adding increasing concentrations of tested molecule. The plate was incubated at 37°C for 3 days. 10 µl MTT stock solution (5 mg/ml in phosphate buffer saline) was added to 90 µl of complete medium in each well, the incubation was continued for 3 h at 37°C. 100 µl of lysis buffer (10 % sodium dodecyl sulfate, 1% HCl 1N; pH 4.7) was added to each well, and the plate was incubated overnight. The absorbance was determined using an Integrated EIA Management System (Labsystem) at a wavelength of 570 nm. The proliferation rates were calculated from the OD readings using the untreated cells as 100%.

[3] = system: malignant NIH 3T3 EF cells; test: Wound healing assay (cell motility); assay type: cell-based; details: NIH 3T3 EF, non cytotoxic concentration (25-100 nM), 10 h after wound formation, Figure 5
Procedure: Harmol dimers have been tested in a cell motility assay: the behaviour of tumoral cells treated by these dimers was compared with non-treated tumoral cells in a wound healing assay. Wound healing assay was performed to evaluate the effect of tested molecules on motility of malignant NIH 3T3 EF cells and melanoma cell line B16F10. About 100 000-200 000 cells were seeded in a 6-well culture plate and the tested molecule was added 24 hours later. Cells were grown for 3 days to confluence about 90-95% and small scratch-wounds (1 mm width) were made with a pipette tip. Cell debris were removed, then the cultures were incubated in complete medium for 10 h in the presence of the same concentration of the tested molecule. Then, the cells were fixed for 10 min in PBS containing 3.7% formaldehyde at 4°C.

B16F10 tumor = test: In vivo tumorigenicity assay, subcutaneous B16F10 tumor growth; design: species or system C57BU6 mice
Procedure: Female 6-8 week-old C57BU6 mice were provided by Harlan (Gannat, France).
Animals were housed in air-conditioned atmosphere, given food and water in standard conditions. One million B16F10 cells in 0.1 ml PBS were injected subcutaneously into the right flank of mice. Seven days after cells inoculation, it was possible to measure tumor volume (day 0). Thereafter, before drug administration, female C57BU6 mice were randomized to form 2 groups. […]
B16F10 tumor development was monitored for 2 weeks. The tumor size was estimated every fourth day by measuring the diameters of the tumors in two perpendicular dimensions using callipers. The volume of tumor (V) was calculated using the formula, V = 2W(U2)2 , where L and W were respectively the length and the width of tumor.
In vivo tumorigenicity assay was studied with harmine. […] In parallel, control mice were treated by one daily oral route administration of the vehicle.

NIH 3T3 EF cells = test: Rescue of F-actin network, FITC-phalloidin fluorescence microscopy; assay type: cell-based; details: non cytotoxic concentration (100 nM), three days, Figure 4
Procedure: Malignant NIH 3T3 EF cells were seeded onto glass cover slips at a density of 2000 cells per cm^2. The next day, tested molecules were applied to NIH 3T3 EF cells at various non cytotoxic concentrations. Three days later, cells were fixed for 10 min in PBS containing 3.7 % formaldehyde at 4°C before examination with a fluorescence microscope. The formaldehyde solution was neutralized with 50 mM NH4Cl. Permeabilisation was carried out for 4 min with 0.4% Triton X-100 in PBS. Cells were incubated for 1 h at room temperature with blocking buffer (3% bovine serum albumin in PBS) and then for 1 h with FITC-phalloidin (Sigma) which stabilizes structures by inhibiting phosphate release from ADP-Pi-actin filaments and allows visualization of actin filaments by fluorescence microscopy. The cover slips were mounted on microscope slides using a solution of glycerol 50%, DABCO 2.5% in PBS as embedding medium.

B16F10 [4] = test: MTT assay (cellular viability); assay type: cell-based, Murine; details: for IC50: Mus musculus, B16-F10, 72 h, B16F10, 3 days
Procedure: as §1, §2

NIH 3T3 EF [5] = test: Cloning assay, colony formation in semi solid medium (methylcellulose); assay type: cell-based; details: for inhibitory activity on NIH 3T3 EF colony formation in methylcellulose semi-solid medium: Figure 2; for IC50: Mus musculus, NIH3T3, 504 h, NIH 3T3 EF, 3 weeks, read-out: Inhibition of colony formation (methylcellulose) IC50
Procedure: (§3) Cells were embedded in complete culture medium supplemented with 0,8% methylcellulose (Methocel MC4000, Sigma), seeded in triplicate into 35-mm dishes (Greiner Bio-one Ref 627102, Dominique Dutscher) and incubated at 37 °C in a humidified 5% CO2 atmosphere.
(§4) The number of cells seeded was 1000 cells per dish. After one week (B16F10 cell line) to 3 weeks (NIH 3T3 EF cell line), macroscopic clones were counted.

B16F10 [6] = test: as above; assay type: cell-based, Murine; details: for IC50: Mus musculus, B16-F10, 168 h, B16F10, one week, read-out: Inhibition of colony formation (methylcellulose) IC50
Procedure: as §3, §4

[7] = 10 µM, NIH 3T3 EF extract, steady state concentration of F-actin (anisotropy enhancement)

| Compound | IC50 (B16F10 [4]) [nM] | IC50 (B16F10 [6]) [nM] | Kobs (F-actin; 10 µM, NIH 3T3 EF extract) | Δ mA max (F-actin; [7]) | actin polymerisation kinetics compared with normal NIH 3T3 cytosolic fraction (F-actin; 10 µM) | F actin steady state value (Δ mA max), effect in words (F-actin) | F actin elongation rate constant (Kobs), effect in words (F-actin; NIH 3T3 EF cytosolic fraction) | inhibition of malignant cell motility [1] | IC50 (NIH 3T3 EF [2]) [nM] | inhibition of malignant cell motility [3] | reorganisation of the actin network in tumor cells (NIH 3T3 EF cells) | inhibitory activity on NIH 3T3 EF colony formation in methylcellulose semi-solid medium (NIH 3T3 EF [5]) | IC50 (NIH 3T3 EF [5]) [nM] | inhibitory activity on B16F10 colony formation in methylcellulose semi-solid medium (B16F10 [6]; Figure 3) | further results |
| --- | --- | --- | --- | --- | --- | --- | --- | --- | --- | --- | --- | --- | --- | --- | --- |
| Cc1nccc2c1[nH]c1cc(OCCCCCOc3ccc4c(c3)[nH]c3c(C)nccc34)ccc12 [BA016DD1172, 7,7'-[Pentane-1,5-diylbis(oxy)]bis(1-methyl-9H-β-carboline)] | 400 | 30 | 0,179 | 62 | similar | increased | increased | inhibited | 300 | inhibited | able to reorganise the actin network | marked inhibitory activity | 50 | marked inhibitory activity | antitumor activity against B16 melanoma (B16F10 tumor; daily per os 100 mg/kg for five days, Figure 7): marked antitumor activity; tumoral growth inhibition (B16F10 tumor; day 7, daily per os 100 mg/kg for five days, versus control group, p = 0,0020): 48,5% |
| COc1ccc2c3ccnc(C)c3n(CCCCCn3c4cc(OC)ccc4c4ccnc(C)c43)c2c1 [BA016FZ518, 9,9'-pentane-1,5-diylbis(7-methoxy-1-methyl-9H-β-carboline)] | 3000 | 40 | 0,104 | 59 | similar | increased | increased | inhibited | 750 | inhibited | able to reorganise the actin network | marked inhibitory activity | 250 | marked inhibitory activity |  |
| Cc1nccc2c1[nH]c1cc(O)ccc12 [harmol] |  |  |  |  |  | No increase |  |  |  |  |  |  |  |  | Δ mA max (F-actin; 10 µM, tumoral NIH3T3 EF cellular lysate): 42 mA; cytotoxicity as measured by MTT test (B16F10 [4]; at 3 µM): non-cytotoxic concentration; inhibitory activity on B16F10 colony formation in methylcellulose semi-solid medium (B16F10 [6]; at 3 µM): did not display an inhibitory activity |

Second part, led by results:

| IC50 (B16F10 [4]) [nM] | IC50 (B16F10 [6]) [nM] | Compound | Kobs (F-actin; 10 µM, NIH 3T3 EF extract) | Δ mA max (F-actin; [7]) | actin polymerisation kinetics compared with normal NIH 3T3 cytosolic fraction (F-actin; 10 µM) | F actin steady state value (Δ mA max), effect in words (F-actin) | F actin elongation rate constant (Kobs), effect in words (F-actin; NIH 3T3 EF cytosolic fraction) | inhibition of malignant cell motility [1] | IC50 (NIH 3T3 EF [2]) [nM] | inhibition of malignant cell motility [3] | reorganisation of the actin network in tumor cells (NIH 3T3 EF cells) | inhibitory activity on NIH 3T3 EF colony formation in methylcellulose semi-solid medium (NIH 3T3 EF [5]) | IC50 (NIH 3T3 EF [5]) [nM] | inhibitory activity on B16F10 colony formation in methylcellulose semi-solid medium (B16F10 [6]; Figure 3) | further results |
| --- | --- | --- | --- | --- | --- | --- | --- | --- | --- | --- | --- | --- | --- | --- | --- |
| 750 | 125 | Cc1nccc2c1[nH]c1cc(OCC3OC(C)(C)OC3COc3ccc4c(c3)[nH]c3c(C)nccc34)ccc12 (stereo not drawn) [BA016DD1183, 7,7'-[(2,2-dimethyl-1,3-dioxolane-4,5-diyl)bis(methyleneoxy)]bis(1-methyl-9H-β-carboline)] | 0,158 | 61 | similar | increased | increased | inhibited | 1000 | inhibited | able to reorganise the actin network | marked inhibitory activity | 300 | marked inhibitory activity |  |
| 1500 | 175 | Cc1nccc2c1[nH]c1cc(OCCCOc3ccc4c(c3)[nH]c3c(C)nccc34)ccc12 [BA016FZ527, 7,7'-[Propane-1,3-diylbis(oxy)]bis(1-methyl-9H-β-carboline)] | 0,132 | 83 |  | increased | increased | inhibited | 1000 | inhibited | able to reorganise the actin network | marked inhibitory activity | 500 | marked inhibitory activity | F actin steady state value compared with NIH 3T3 cytosolic fraction (F-actin; 10 µM, NIH 3T3 EF cytosolic fraction): higher; F actin elongation rate constant compared with NIH 3T3 cytosolic fraction (F-actin; NIH 3T3 EF cytosolic fraction, BA016FZ527 at 10 µM, harmine concentration not given): higher |
